Laboratory results from patent US12409171B2, “Pharmaceutically active pyrazolo-pyridone modulators of DCN1/2-mediated cullin neddylation” (UNIVERSITY OF KENTUCKY RESEARCH FOUNDATION, priority 2019, dated 2025).

What was measured:
[1] = target: T1, DCN1 (Homo sapiens (Human), UniProt Q96GG9); settings: class symbols H, M, M-L, legend not given; cited from earlier work
[2] = target: T1, DCN1; assay: TR-FRET binding assay (biotin-DCN1 / Ac-UBE2M12-AlexaFluor488); settings: mean ± SD (n); read-out: DCN1_TRFRET Mean EC50
Summary of the method: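 Biotinylated DCN1 binding to Ac-UBE2M12-AlexaFluor488 read by TR-FRET; assay cocktail pre-incubated 1 h at room temperature before compounds added from DMSO stocks by pin transfer. IC50 is the mean of three replicates ± SD; compounds tested in triplicate or more.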

T1 sequence (Q96GG9 whole entry): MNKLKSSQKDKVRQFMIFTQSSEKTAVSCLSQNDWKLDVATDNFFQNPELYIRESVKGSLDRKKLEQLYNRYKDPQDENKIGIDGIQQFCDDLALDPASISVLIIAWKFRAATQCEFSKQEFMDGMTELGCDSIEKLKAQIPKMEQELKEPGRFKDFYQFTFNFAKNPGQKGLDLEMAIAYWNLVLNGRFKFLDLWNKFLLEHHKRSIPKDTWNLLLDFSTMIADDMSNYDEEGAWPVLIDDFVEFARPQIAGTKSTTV

| SMILES | Pulse-Chase inh @ 30 uM [1] | EC50 [2] [nM] |
| --- | --- | --- |
| COc1ccc([C@@H]2c3c(C)nn(C)c3NC(=O)[C@H]2NC(=O)c2cccc(C)c2)cc1F (racemic) [SJ000398158] | M-L | – |
| Cc1nn(C)c2c1[C@@H](c1ccc(F)c(F)c1)[C@H](NC(=O)c1ccc(Cl)cc1)C(=O)N2 (racemic) [SJ000399589] | M-L | – |
| CCN1C(=O)[C@@H](NC(=O)c2ccc(F)c(C)c2)[C@@H](c2ccc(F)cc2)c2c(C)nn(-c3ccccc3)c21 [RG-0014168, N-[(4S,5S)-7-ethyl-4-(4-fluorophenyl)-3-methyl-6-oxo-1-phenyl-1H,4H,5H,6H,7H-pyrazolo[3,4-b]pyridin-5-yl]-4-fluoro-3-methylbenzamide] | – | 1690 ± 115 |
